# Results reported in patent publication US20140349948A1, “Treatment of Chronic Constipation” (Forest Laboratories Holdings Limited, priority 2009, published 2014).
# Marks after values point to notes of the source that are not given here. Residues, ends and D or L forms follow the SMILES beside them.
# Tested on: patients with chronic constipation
# Assay: Chronic Constipation Trial 2, 12-week treatment period
# Format: in vivo, human
# Conditions: for Straining, Week 1 Mean Change from Baseline / Abdominal discomfort, Week 1 Mean Change from Baseline / Bloating, Week 1 Mean Change from Baseline / Constipation severity, Week 1 Mean Change from Baseline: 5-point scale: 1 = none; for Straining, Week 1 Mean Change from Baseline: 5 = an extreme amount; for Abdominal discomfort, Week 1 Mean Change from Baseline / Bloating, Week 1 Mean Change from Baseline / Constipation severity, Week 1 Mean Change from Baseline: 5 = very severe; for Stool Consistency, Week 1 Mean Change from Baseline: 7-point scale (BSFS)
# Procedure: Linaclotide Capsules from Example 4 were administered in multicenter, randomized, double-blind, placebo-controlled trials.
# Trial 1 was conducted in 630 patients meeting modified Rome II criteria for chronic constipation. The trial included a two-week pretreatment baseline period and a 12-week treatment period. A diagram of the study design for Trial 2 is given in FIG. 1, which is substantially similar to Trial 1 except for the addition of a Randomized Withdrawal period in Trial 2 as described below.
# The Treatment Period began with randomization and lasted for 12 weeks. Patients were randomized to treatment with 133 μg linaclotide, 266 μg linaclotide, or placebo (1:1:1), taken once daily in the morning. Patients continued to provide their daily assessments such as their daily bowel habit assessments and daily patient symptom severity assessments.
# Trial 2 was conducted in 642 patients and was identical to Trial 1 except that Trial 2 also included a four-week Randomized Withdrawal Period, defined below. During the two-week pretreatment (baseline) period, 68 percent of patients in Trial 2 had no CSBMs.
# [1] = Trial 2, 133 μg (p≦0.0001) and 266 μg (p≦0.0001)
smiles,measurement,setting,value
"C[C@@H]1NC(=O)[C@@H]2CCCN2C(=O)[C@H](CC(N)=O)NC(=O)[C@@H]2CSSC[C@H](N)C(=O)N[C@H]3CSSC[C@H](NC1=O)C(=O)N[C@@H]([C@@H](C)O)C(=O)NCC(=O)N[C@H](C(=O)N[C@@H](Cc1ccc(O)cc1)C(=O)O)CSSC[C@H](NC(=O)[C@H](Cc1ccc(O)cc1)NC(=O)[C@H](CCC(=O)O)NC3=O)C(=O)N2 [Linaclotide, Cys1 Cys2 Glu3 Tyr4 Cys5 Cys6 Asn7 Pro8 Ala9 Cys10 Thr11 Gly12 Cys13 Tyr14] (HELM PEPTIDE1{C.C.E.Y.C.C.N.P.A.C.T.G.C.Y}$PEPTIDE1,PEPTIDE1,1:R3-6:R3|PEPTIDE1,PEPTIDE1,2:R3-10:R3|PEPTIDE1,PEPTIDE1,5:R3-13:R3$$$V2.0)","CSBM rate, Week 1 Mean Change from Baseline","133 μg, Trial 2 (n = 217)",1.89***
same,"SBM rate, Week 1 Mean Change from Baseline","133 μg, Trial 2 (n = 217)",3.59***
same,"Straining, Week 1 Mean Change from Baseline","133 μg, Trial 2 (n = 217)",−0.99***
same,"Abdominal discomfort, Week 1 Mean Change from Baseline","133 μg, Trial 2 (n = 217)",−0.23
same,"Bloating, Week 1 Mean Change from Baseline","133 μg, Trial 2 (n = 217)",−0.32**
same,"Constipation severity, Week 1 Mean Change from Baseline","133 μg, Trial 2 (n = 217)",−0.80***
same,"Stool Consistency, Week 1 Mean Change from Baseline","133 μg, Trial 2 (n = 217)",1.75***
same,"CSBM rate, Week 1 Mean Change from Baseline","266 μg, Trial 2 (n = 216)",2.02***
same,"SBM rate, Week 1 Mean Change from Baseline","266 μg, Trial 2 (n = 216)",3.61***
same,"Straining, Week 1 Mean Change from Baseline","266 μg, Trial 2 (n = 216)",−1.06***
same,"Abdominal discomfort, Week 1 Mean Change from Baseline","266 μg, Trial 2 (n = 216)",−0.21
same,"Bloating, Week 1 Mean Change from Baseline","266 μg, Trial 2 (n = 216)",−0.27*
same,"Constipation severity, Week 1 Mean Change from Baseline","266 μg, Trial 2 (n = 216)",−0.76***
same,"Stool Consistency, Week 1 Mean Change from Baseline","266 μg, Trial 2 (n = 216)",1.81***
same,12-week CSBM overall responder rate,"Trial 2, 133 μg",21.2%
same,increase in average weekly CSBMs from baseline,"Trial 2, 133 μg",1.9
same,increase in average weekly SBMs from baseline,"Trial 2, 133 μg",3.0
same,numerical increase of 12-week CSBM overall responder rate as compared to placebo,"Trial 2, 133 μg",6.3 fold
same,patients reporting at least one CSBM within 24 hours of treatment,"Trial 2, 133 μg",33.2%
same,patients reporting at least one SBM within 24 hours of treatment,"Trial 2, 133 μg",70.0%
same,patients who experienced weekly CSBMs in at least nine out of 12 weeks,"Trial 2, 133 μg",21.7%
same,patients with increase of ≧1 from baseline in weekly CSBMs in at least nine out of 12 weeks,"Trial 2, 133 μg",39.2%
same,patients with increase of ≧1 from baseline in weekly CSBMs in at least six out of 12 weeks,"Trial 2, 133 μg",56.7%
same,12-week CSBM overall responder rate,"Trial 2, 266 μg",19.4%
same,increase in average weekly CSBMs from baseline,"Trial 2, 266 μg",2.0
same,increase in average weekly SBMs from baseline,"Trial 2, 266 μg",3.0
same,numerical increase of 12-week CSBM overall responder rate as compared to placebo,"Trial 2, 266 μg",5.8 fold
same,patients reporting at least one CSBM within 24 hours of treatment,"Trial 2, 266 μg",26.9%
same,patients reporting at least one SBM within 24 hours of treatment,"Trial 2, 266 μg",54.6%
same,patients who experienced weekly CSBMs in at least nine out of 12 weeks,"Trial 2, 266 μg",19.4%
same,patients with increase of ≧1 from baseline in weekly CSBMs in at least nine out of 12 weeks,"Trial 2, 266 μg",37.0%
same,patients with increase of ≧1 from baseline in weekly CSBMs in at least six out of 12 weeks,"Trial 2, 266 μg",50.5%
same,"PAC-QOL overall assessments, 12 week overall mean change versus placebo",[1],statistically significant improvements
same,"overall constipation severity score, 12 week overall mean change versus placebo",[1],statistically significant improvements
same,"severity of straining score, 12 week overall mean change versus placebo",[1],statistically significant improvements
same,"stool consistency score, 12 week overall mean change versus placebo",[1],statistically significant improvements
same,"bloating score, 12 week overall mean change versus placebo","Trial 2, 133 μg (p≦0.0001) and 266 μg (p≦0.01)",statistically significant improvements
same,"abdominal discomfort score, 12 week overall mean change versus placebo","Trial 2, 133 μg (p≦0.001) and 266 μg (p≦0.01)",statistically significant improvements
same,abdominal discomfort in week 2,"study 2, week 2 (p<0.01)",Statistically significant improvement
